Structures are written as SMILES.

One may read the Kd as the equilibrium constant for the complex coming apart. As a reminder, the IC50 is the concentration that gives 50% inhibition.

Experiment [1] addresses T1, human metabotropic glutamate type 2 receptor (hmGlu2) (Homo sapiens, UniProt Q14416).
T1 construct: gene GRM2; full-length receptor, stably expressed in CHO cells (membranes)
Nature of the experiment: [3H]DCG-IV saturation binding, hmGlu2 CHO membranes.

Experiment [2] deals with T2, human 5HT2A receptor (h5HT2A) (Homo sapiens, UniProt P28223).
T2 construct: gene HTR2A
Nature of the experiment: [3H]ketanserin displacement.

T2 sequence (P28223 whole entry): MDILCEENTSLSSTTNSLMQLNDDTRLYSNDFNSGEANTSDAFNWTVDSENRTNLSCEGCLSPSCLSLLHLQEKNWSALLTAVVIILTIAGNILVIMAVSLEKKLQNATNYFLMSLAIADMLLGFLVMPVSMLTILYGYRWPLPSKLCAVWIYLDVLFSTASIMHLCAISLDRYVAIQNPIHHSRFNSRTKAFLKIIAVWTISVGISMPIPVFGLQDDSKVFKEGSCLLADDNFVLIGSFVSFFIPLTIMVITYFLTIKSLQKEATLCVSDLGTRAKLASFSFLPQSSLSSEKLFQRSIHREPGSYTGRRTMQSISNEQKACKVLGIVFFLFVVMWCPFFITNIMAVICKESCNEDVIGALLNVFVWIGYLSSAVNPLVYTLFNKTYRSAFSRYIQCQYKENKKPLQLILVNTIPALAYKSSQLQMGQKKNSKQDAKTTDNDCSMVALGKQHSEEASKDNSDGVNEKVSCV
T1 sequence (Q14416 19-872): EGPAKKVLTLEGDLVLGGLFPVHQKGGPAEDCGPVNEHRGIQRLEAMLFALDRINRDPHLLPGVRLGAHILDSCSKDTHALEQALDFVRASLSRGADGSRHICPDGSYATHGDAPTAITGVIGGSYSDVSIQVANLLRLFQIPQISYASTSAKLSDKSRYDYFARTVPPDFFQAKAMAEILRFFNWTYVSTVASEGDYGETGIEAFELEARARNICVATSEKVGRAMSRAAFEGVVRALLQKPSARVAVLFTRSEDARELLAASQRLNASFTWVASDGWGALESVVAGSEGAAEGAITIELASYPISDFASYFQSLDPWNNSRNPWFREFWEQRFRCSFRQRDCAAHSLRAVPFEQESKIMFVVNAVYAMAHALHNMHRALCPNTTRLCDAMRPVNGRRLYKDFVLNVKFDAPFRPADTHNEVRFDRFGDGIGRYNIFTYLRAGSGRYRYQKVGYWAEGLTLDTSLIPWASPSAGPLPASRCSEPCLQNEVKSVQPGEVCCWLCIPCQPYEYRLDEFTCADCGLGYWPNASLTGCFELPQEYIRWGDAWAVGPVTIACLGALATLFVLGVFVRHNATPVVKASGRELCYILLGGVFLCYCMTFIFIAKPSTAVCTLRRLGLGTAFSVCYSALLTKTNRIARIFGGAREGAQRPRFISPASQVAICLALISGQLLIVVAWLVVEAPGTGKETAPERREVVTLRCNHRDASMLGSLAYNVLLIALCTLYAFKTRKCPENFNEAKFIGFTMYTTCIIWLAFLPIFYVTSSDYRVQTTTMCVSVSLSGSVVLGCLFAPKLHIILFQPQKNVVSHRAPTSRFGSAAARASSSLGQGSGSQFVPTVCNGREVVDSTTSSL

As for `N[C@H](C(=O)O)C1[C@@H](C(=O)O)[C@@H]1C(=O)O` (some centres unmarked) [DCG-IV], the Kd in experiment [1] stood at 200 nM.
In the case of `CCCCn1ccc(N2CCC(c3ccc(O)cc3)CC2)c(Cl)c1=O` [JNJ-42159052], the IC50 in experiment [2] was found to be 102 nM.

For the origin of these results see publication PMC4317228 (Pharmacology Research & Perspectives, 2014).
